Laboratory results reported in ChEMBL document CHEMBL4229544, “Design, synthesis and antibacterial properties of pyrimido[4,5-b]indol-8-amine inhibitors of DNA gyrase” (Bioorg Med Chem Lett, 2018).
Values after ≈ are worked out from the molar mass of the structure shown.

How the values were obtained:
Type in all cases: functional
[1] = tested on: Mycobacterium tuberculosis; test: Antitubercular activity against fluoroquinolone-resistant Mycobacterium tuberculosis H37Rv harboring gyrA D94N mutant
[2] = tested on: Mycobacterium tuberculosis; test: Antitubercular activity against isoniazid-resistant Mycobacterium tuberculosis H37Rv harboring katG Y155 mutant
[3] = tested on: Mycobacterium tuberculosis; test: Antitubercular activity against rifampicin-resistant Mycobacterium tuberculosis H37Rv harboring RpoB S522L mutant

Row | Compound | MIC [1] | MIC [2] | MIC [3]
1 | CNc1cc(F)cc2c1[nH]c1nc(CNC(=O)c3cocn3)nc(N3CCC(N)C3)c12 (stereo not drawn) | 0.014 µg/mL (≈ 0.033 µM) | 0.013 µg/mL (≈ 0.0306 µM) | 0.012 µg/mL (≈ 0.0283 µM)
2 | CNc1cc(F)cc2c1[nH]c1nc(CNC(=O)c3cnco3)nc(N3CCC(N)C3)c12 (stereo not drawn) | 0.09 µg/mL (≈ 0.212 µM) | 0.09 µg/mL (≈ 0.212 µM) | 0.09 µg/mL (≈ 0.212 µM)
3 | NNC(=O)c1ccncc1 [ISONIAZID] | 0.05 µg/mL (≈ 0.365 µM) | >27 µg/mL | 0.014 µg/mL (≈ 0.102 µM)
4 | COc1c(N2C[C@@H]3CCCN[C@@H]3C2)c(F)cc2c(=O)c(C(=O)O)cn(C3CC3)c12 [MOXIFLOXACIN] | 3.9 µg/mL (≈ 9.72 µM) | 0.04 µg/mL (≈ 0.0996 µM) | 0.04 µg/mL (≈ 0.0996 µM)
5 | CO[C@@H]1[C@@H](OC(N)=O)[C@@H](O)[C@H](Oc2ccc3c(O)c(NC(=O)c4ccc(O)c(CC=C(C)C)c4)c(=O)oc3c2C)OC1(C)C [NOVOBIOCIN] | 7.35 µg/mL (≈ 12 µM) | 6.7 µg/mL (≈ 10.9 µM) | 13.5 µg/mL (≈ 22 µM)
6 | CO[C@H]1/C=C/O[C@@]2(C)Oc3c(C)c(O)c4c(O)c(c(/C=N/N5CCN(C)CC5)c(O)c4c3C2=O)NC(=O)/C(C)=C\C=C\[C@H](C)[C@H](O)[C@@H](C)[C@@H](O)[C@@H](C)[C@H](OC(C)=O)[C@@H]1C [RIFAMPIN] | 0.019 µg/mL (≈ 0.0231 µM) | 0.013 µg/mL (≈ 0.0158 µM) | 3 µg/mL (≈ 3.65 µM)
